Experimental data: ChEMBL document CHEMBL4371076 (J Med Chem, 2019); call rule not given here

Tests used:
[1] = target: Sodium channel protein type 5 subunit alpha (Homo sapiens, UniProt Q14524); assay: Inhibition of human Nav1.5 expressed in HEK293 cells after 600 secs at -50 mV holding potential by ion works barracuda population patch clamp method; type: cell-based
[2] = target: T1, Sodium channel protein type 9 subunit alpha (Homo sapiens, UniProt Q15858); assay: Inhibition of human Nav1.7 expressed in HEK293 cells after 600 secs at -60 mV holding potential by ion works barracuda population patch clamp method; type: cell-based
Cytochrome P450 2D6 [3] = target: T2, Cytochrome P450 2D6 (Homo sapiens, UniProt P10635); assay: Time-dependant inhibition of CYP2D6 in human liver microsomes; type: ADME
[4] = Metabolic stability in mouse liver microsomes assessed as parent compound remaining at 0.5 uM after 10 mins; type: ADME, Microsome; conditions: read-out: Stability
[5] = Metabolic stability in rat liver microsomes assessed as parent compound remaining at 0.5 uM after 10 mins; type: ADME, Microsome; conditions: read-out: Stability
Cytochrome P450 2C19 [6] = target: T3, Cytochrome P450 2C19 (Homo sapiens, UniProt P33261); assay: Inhibition of CYP2C19 in human liver microsomes; type: ADME; conditions: human, microsomes
Cytochrome P450 2C8 [7] = target: T4, Cytochrome P450 2C8 (Homo sapiens, UniProt P10632); assay: Inhibition of CYP2C8 in human liver microsomes; type: ADME; conditions: human, microsomes
T4 sequence (P10632 whole entry): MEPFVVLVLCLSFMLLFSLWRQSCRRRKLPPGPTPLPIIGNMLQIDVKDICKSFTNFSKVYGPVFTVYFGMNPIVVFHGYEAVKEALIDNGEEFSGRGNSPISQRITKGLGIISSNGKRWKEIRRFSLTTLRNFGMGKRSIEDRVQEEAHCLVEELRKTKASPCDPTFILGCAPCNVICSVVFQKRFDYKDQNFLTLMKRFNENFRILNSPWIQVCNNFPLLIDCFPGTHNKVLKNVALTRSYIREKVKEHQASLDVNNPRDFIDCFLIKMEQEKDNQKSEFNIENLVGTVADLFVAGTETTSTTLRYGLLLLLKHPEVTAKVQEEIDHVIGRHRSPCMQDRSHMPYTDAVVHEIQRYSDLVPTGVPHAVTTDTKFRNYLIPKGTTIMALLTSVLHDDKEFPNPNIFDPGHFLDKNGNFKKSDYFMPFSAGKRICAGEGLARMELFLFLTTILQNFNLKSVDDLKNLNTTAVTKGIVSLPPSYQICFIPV

[8] = Metabolic stability in human liver microsomes assessed as parent compound remaining at 0.5 uM after 10 mins; type: ADME, Microsome; conditions: read-out: Stability
[9] = Permeability of the compound at pH 5.5 by PAMPA; type: ADME; conditions: read-out: permeability
Cytochrome P450 2C19 [10] = target: T3, Cytochrome P450 2C19; assay: Time-dependant inhibition of CYP2C19 in human liver microsomes; type: ADME
[11] = Permeability of the compound at pH 7.4 by PAMPA; type: ADME; conditions: read-out: permeability
[12] = Efflux ratio of permeability in human Caco2 cells; type: ADME, cell-based; conditions: Caco-2
Cytochrome P450 2C8 [13] = target: T4, Cytochrome P450 2C8; assay: Time-dependant inhibition of CYP2C8 in human liver microsomes; type: ADME
Cytochrome P450 2C9 [14] = target: T5, Cytochrome P450 2C9 (Homo sapiens, UniProt P11712); assay: Time-dependant inhibition of CYP2C9 in human liver microsomes; type: ADME
[15] = target: T1, Sodium channel protein type 9 subunit alpha; assay: Inhibition of recombinant human Nav1.7 expressed in HEK293 cells at -70 mV holding potential by patch clamp electrophysiology method; type: cell-based
Cytochrome P450 2B6 [16] = target: T6, Cytochrome P450 2B6 (Homo sapiens, UniProt P20813); assay: Inhibition of CYP2B6 in human liver microsomes; type: ADME; conditions: human, microsomes
T6 sequence (P20813 whole entry): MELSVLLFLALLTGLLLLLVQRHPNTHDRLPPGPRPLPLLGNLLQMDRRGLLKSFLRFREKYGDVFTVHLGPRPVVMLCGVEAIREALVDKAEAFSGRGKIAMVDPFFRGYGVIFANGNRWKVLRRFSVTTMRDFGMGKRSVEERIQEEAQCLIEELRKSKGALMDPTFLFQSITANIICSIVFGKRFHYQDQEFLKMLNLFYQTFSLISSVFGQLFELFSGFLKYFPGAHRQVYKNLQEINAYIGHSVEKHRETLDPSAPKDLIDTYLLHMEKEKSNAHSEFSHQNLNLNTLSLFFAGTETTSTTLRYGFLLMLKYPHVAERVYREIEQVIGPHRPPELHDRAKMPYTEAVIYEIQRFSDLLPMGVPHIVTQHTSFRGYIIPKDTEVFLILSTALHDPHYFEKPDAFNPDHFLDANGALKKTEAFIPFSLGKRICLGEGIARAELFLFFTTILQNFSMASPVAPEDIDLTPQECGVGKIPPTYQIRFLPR

Cytochrome P450 2B6 [17] = target: T6, Cytochrome P450 2B6; assay: Time-dependant inhibition of CYP2B6 in human liver microsomes; type: ADME
[18] = Permeability from basolateral to apical side in human Caco2 cells; type: ADME, cell-based; conditions: Caco-2, read-out: permeability
[19] = Fraction unbound in mouse plasma; type: ADME, cell-free
Cytochrome P450 2D6 [20] = target: T2, Cytochrome P450 2D6; assay: Inhibition of CYP2D6 in human liver microsomes; type: ADME; conditions: human, microsomes
Cytochrome P450 3A4 [21] = target: T7, Cytochrome P450 3A4 (Homo sapiens, UniProt P08684); assay: Inhibition of CYP3A4 in human liver microsomes; type: ADME; conditions: human, microsomes
[22] = Permeability from apical to basolateral side in human Caco2 cells; type: ADME, cell-based; conditions: Caco-2, read-out: permeability
Cytochrome P450 2C9 [23] = target: T5, Cytochrome P450 2C9; assay: Inhibition of CYP2C9 in human liver microsomes; type: ADME; conditions: human, microsomes
Cytochrome P450 3A4 [24] = target: T7, Cytochrome P450 3A4; assay: Time-dependant inhibition of CYP3A4 in human liver microsomes; type: ADME
[25] = Fraction unbound in human plasma; type: ADME, cell-free

Sodium channel protein type 5 subunit alpha, sequence (Q14524 whole entry): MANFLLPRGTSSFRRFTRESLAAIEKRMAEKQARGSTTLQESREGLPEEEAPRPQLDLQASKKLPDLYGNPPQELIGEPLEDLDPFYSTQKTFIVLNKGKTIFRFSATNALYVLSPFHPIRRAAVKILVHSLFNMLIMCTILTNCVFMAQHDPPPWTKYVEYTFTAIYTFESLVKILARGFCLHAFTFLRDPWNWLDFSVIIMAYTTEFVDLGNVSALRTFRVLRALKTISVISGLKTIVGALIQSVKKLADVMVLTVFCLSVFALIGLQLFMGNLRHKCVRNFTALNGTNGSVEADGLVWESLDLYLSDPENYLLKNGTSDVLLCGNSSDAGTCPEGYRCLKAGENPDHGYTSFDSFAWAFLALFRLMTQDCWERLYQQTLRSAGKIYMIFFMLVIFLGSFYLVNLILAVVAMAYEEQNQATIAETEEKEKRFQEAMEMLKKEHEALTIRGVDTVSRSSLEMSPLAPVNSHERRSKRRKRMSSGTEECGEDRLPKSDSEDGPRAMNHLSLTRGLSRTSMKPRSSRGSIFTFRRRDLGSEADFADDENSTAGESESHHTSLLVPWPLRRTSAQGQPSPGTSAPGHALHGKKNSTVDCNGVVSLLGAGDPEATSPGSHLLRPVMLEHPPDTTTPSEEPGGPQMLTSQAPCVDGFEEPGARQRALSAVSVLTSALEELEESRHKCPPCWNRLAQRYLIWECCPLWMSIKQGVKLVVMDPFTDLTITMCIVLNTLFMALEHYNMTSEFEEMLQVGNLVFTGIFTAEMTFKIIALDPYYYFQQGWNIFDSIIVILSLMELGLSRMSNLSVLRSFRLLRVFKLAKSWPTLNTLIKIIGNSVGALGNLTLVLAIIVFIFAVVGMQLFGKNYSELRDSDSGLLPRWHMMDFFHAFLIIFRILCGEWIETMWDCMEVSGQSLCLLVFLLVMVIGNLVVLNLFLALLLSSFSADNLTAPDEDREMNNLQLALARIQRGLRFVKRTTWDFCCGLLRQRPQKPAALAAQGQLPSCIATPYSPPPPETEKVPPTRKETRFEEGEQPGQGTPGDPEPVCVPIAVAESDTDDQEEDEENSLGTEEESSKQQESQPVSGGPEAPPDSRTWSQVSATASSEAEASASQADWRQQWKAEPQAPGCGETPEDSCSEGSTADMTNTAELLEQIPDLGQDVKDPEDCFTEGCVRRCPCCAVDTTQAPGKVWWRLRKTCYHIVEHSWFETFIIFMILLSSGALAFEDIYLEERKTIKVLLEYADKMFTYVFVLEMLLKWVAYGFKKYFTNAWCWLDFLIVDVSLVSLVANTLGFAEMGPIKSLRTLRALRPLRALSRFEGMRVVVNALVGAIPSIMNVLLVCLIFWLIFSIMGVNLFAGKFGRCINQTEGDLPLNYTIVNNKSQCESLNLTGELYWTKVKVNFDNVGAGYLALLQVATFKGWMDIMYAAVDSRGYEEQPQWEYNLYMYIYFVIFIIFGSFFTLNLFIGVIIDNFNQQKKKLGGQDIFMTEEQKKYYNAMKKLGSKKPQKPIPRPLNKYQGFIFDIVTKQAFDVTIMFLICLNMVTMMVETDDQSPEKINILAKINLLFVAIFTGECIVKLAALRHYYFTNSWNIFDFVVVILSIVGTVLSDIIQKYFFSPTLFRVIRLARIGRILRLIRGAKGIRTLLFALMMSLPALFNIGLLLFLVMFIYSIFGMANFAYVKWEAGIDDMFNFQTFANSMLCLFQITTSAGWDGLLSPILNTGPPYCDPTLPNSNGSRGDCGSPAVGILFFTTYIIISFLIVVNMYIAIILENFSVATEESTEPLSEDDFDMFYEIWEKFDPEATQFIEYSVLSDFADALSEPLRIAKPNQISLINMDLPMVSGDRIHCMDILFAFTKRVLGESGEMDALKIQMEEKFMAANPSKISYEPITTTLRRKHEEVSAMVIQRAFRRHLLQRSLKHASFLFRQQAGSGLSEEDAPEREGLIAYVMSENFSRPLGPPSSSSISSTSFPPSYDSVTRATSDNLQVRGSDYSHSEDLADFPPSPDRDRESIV
T1 sequence (Q15858 whole entry): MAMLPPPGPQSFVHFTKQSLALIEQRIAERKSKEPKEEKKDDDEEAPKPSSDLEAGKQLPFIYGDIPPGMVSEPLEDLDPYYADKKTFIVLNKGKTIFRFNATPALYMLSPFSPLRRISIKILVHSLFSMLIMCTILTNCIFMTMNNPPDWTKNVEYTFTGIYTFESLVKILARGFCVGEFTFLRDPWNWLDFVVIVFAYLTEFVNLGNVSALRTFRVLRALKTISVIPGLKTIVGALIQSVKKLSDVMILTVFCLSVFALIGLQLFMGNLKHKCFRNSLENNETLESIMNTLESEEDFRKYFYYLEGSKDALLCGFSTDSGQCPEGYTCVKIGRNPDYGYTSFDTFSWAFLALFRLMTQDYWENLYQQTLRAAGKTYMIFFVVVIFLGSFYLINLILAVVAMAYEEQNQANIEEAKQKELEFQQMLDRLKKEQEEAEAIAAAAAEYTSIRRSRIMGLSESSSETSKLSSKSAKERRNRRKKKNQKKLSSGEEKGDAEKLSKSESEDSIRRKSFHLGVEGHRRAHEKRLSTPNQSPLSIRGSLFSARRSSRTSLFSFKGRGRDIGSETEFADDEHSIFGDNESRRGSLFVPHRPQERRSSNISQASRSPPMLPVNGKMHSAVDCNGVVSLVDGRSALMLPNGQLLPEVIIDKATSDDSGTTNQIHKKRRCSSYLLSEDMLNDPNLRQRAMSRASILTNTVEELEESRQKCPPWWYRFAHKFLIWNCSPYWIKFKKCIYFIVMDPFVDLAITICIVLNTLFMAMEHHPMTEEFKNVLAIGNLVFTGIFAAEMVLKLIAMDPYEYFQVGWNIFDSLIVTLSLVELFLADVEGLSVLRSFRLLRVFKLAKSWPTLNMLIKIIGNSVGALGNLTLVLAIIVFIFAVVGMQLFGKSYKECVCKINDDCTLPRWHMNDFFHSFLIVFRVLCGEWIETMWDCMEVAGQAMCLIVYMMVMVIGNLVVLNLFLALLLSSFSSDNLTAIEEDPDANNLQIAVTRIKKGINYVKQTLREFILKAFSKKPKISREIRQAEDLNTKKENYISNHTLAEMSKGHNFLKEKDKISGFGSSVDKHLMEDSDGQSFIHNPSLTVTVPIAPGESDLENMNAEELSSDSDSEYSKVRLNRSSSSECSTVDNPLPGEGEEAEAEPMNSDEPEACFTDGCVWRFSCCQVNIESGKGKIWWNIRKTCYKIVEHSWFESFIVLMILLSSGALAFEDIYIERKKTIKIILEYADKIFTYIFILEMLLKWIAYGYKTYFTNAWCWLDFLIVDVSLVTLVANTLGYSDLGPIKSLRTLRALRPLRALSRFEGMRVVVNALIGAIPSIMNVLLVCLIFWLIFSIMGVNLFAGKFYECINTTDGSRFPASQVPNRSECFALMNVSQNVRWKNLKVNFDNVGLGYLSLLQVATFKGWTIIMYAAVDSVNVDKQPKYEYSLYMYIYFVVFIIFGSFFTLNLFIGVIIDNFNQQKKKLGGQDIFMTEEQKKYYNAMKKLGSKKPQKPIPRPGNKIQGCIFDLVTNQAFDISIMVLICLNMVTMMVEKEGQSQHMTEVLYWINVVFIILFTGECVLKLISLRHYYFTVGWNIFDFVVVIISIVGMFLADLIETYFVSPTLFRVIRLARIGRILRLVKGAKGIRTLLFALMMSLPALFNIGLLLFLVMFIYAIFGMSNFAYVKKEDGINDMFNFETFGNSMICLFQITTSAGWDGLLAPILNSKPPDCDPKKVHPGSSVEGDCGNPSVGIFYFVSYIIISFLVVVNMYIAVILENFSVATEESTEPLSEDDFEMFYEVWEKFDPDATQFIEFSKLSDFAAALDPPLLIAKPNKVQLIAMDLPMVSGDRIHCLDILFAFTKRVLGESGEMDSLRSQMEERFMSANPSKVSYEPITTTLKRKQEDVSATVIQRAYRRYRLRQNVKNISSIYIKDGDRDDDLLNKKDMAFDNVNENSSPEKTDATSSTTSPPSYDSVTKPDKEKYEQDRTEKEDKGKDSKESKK
T7 sequence (P08684 whole entry): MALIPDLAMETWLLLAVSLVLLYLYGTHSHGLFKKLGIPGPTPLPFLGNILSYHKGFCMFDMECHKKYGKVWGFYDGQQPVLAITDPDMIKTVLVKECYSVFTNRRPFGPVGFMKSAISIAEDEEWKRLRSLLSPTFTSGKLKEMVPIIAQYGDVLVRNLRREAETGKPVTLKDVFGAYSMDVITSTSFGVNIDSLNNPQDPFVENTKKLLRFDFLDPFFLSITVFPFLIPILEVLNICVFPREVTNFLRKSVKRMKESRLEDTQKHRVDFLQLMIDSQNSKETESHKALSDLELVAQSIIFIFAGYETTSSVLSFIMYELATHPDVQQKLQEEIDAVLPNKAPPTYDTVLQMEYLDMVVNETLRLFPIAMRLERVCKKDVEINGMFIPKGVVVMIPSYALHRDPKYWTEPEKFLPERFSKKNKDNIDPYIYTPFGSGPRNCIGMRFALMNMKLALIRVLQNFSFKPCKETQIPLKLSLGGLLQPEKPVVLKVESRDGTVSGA
T2 sequence (P10635 whole entry): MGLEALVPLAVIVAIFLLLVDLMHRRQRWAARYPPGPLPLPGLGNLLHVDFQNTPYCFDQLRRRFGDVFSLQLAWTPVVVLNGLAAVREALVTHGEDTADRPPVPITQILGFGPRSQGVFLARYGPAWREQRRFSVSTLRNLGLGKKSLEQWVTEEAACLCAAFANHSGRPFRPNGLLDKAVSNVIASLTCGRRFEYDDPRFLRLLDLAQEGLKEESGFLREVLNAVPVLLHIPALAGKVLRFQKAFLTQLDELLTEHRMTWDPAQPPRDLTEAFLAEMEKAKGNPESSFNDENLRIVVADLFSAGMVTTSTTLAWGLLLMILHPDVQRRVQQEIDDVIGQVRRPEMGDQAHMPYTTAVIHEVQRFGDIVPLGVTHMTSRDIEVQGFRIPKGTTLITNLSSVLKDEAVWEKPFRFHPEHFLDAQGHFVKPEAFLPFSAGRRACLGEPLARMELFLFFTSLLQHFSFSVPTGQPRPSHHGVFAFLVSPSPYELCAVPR

## CC(C)COc1ncc(-c2cn(C(C)C)c3cc(C(=O)NS(C)(=O)=O)ccc23)cc1Cl
[1]
  IC50: 1700 nM

## Cn1nc(-c2ccc(C(F)(F)F)cc2)c2ccc(C(=O)NS(C)(=O)=O)cc21
[1]
  IC50: > 30000 nM
[2]
  IC50: 194 nM

## Cn1cc(-c2ccc(C(F)(F)F)cc2)c2ccc(C(=O)NS(C)(=O)=O)nc21
[2]
  IC50: 3020 nM

## CC(C)COc1ncc(-c2cn(C)c3cc(C(=O)NS(C)(=O)=O)ccc23)cc1C#N
[1]
  IC50: 21000 nM
[2]
  IC50: 70 nM

## CCc1cccc(-c2cn(C)c3cc(C(=O)NS(C)(=O)=O)ccc23)c1
[1]
  IC50: > 30000 nM

## Cn1nc(-c2ccc(C(F)(F)F)cc2)c2cc(F)c(C(=O)NS(=O)(=O)C3CC3)cc21
Cytochrome P450 2D6 [3]
  TDI: Not Active
[1]
  IC50: 6400 nM
[4]
  remaining at 10 min, 0.5 µM: 100%
[5]
  remaining at 10 min, 0.5 µM: 100%
Cytochrome P450 2C19 [6]
  inhibition (INH): Not Active
Cytochrome P450 2C8 [7]
  inhibition (INH): Not Active
[8]
  remaining at 10 min, 0.5 µM: 100%
[9]
  Papp: 59.2 ×10⁻⁶ cm/s
Cytochrome P450 2C19 [10]
  TDI: Not Active
[11]
  Papp: 10.2 ×10⁻⁶ cm/s
[12]
  efflux ratio: > 21
Cytochrome P450 2C8 [13]
  TDI: Not Active
Cytochrome P450 2C9 [14]
  TDI: Not Active
[15]
  IC50: 21 nM
Cytochrome P450 2B6 [16]
  inhibition (INH): Not Active
Cytochrome P450 2B6 [17]
  TDI: Not Active
[18]
  Papp B→A: 31.2 ×10⁻⁶ cm/s
[19]
  fraction unbound: 0.008
Cytochrome P450 2D6 [20]
  inhibition (INH): Not Active
Cytochrome P450 3A4 [21]
  inhibition (INH): Not Active
[22]
  Papp A→B: < 1.5 ×10⁻⁶ cm/s
Cytochrome P450 2C9 [23]
  inhibition (INH): Not Active
[2]
  IC50: 13 nM
Cytochrome P450 3A4 [24]
  TDI: Not Active

## Cc1cccc(-c2cn(C)c3cc(C(=O)NS(C)(=O)=O)ccc23)c1
[1]
  IC50: > 30000 nM

## COc1cc(-c2cn(C)c3cc(C(=O)NS(C)(=O)=O)ccc23)cnc1OCC(C)C
[1]
  IC50: > 30000 nM
[2]
  IC50: 510 nM

## CC(C)COc1ncc(-c2nn(C)c3cc(C(=O)NS(=O)(=O)C4CC4)ccc23)cc1Cl
[1]
  IC50: 5900 nM
[2]
  IC50: 104 nM

## Cn1cc(-c2ccc(C(F)F)cc2)c2cc(F)c(C(=O)NS(C)(=O)=O)cc21
[1]
  IC50: > 30000 nM

## CC(C)COc1ncc(-c2c3ccc(C(=O)NS(=O)(=O)C4CC4)cc3nn2C)cc1Cl
[2]
  IC50: 190 nM

## CC(C)COc1ccc(-c2nn(C)c3cc(C(=O)NS(C)(=O)=O)ccc23)cn1
[1]
  IC50: > 30000 nM
[2]
  IC50: 314 nM

## Cn1cc(-c2ccc(C(F)(F)F)cc2)c2ccc(C(=O)NS(=O)(=O)C3CC3)cc21
Cytochrome P450 2D6 [3]
  TDI: Not Active
[1]
  IC50: 8400 nM
[4]
  remaining at 10 min, 0.5 µM: 87%
[5]
  remaining at 10 min, 0.5 µM: 92%
Cytochrome P450 2C19 [6]
  inhibition (INH): Not Active
Cytochrome P450 2C8 [7]
  inhibition (INH): Not Active
[8]
  remaining at 10 min, 0.5 µM: 87%
[9]
  Papp: 52.5 ×10⁻⁶ cm/s
Cytochrome P450 2C19 [10]
  TDI: Not Active
[25]
  fraction unbound: 0.002
[11]
  Papp: 13.5 ×10⁻⁶ cm/s
Cytochrome P450 2C8 [13]
  TDI: Not Active
Cytochrome P450 2C9 [14]
  TDI: Not Active
[15]
  IC50: 8 nM
Cytochrome P450 2B6 [16]
  inhibition (INH): Not Active
Cytochrome P450 2B6 [17]
  TDI: Not Active
[19]
  fraction unbound: 0.004
Cytochrome P450 2D6 [20]
  inhibition (INH): Not Active
Cytochrome P450 3A4 [21]
  inhibition (INH): Not Active
Cytochrome P450 2C9 [23]
  inhibition (INH): Not Active
[2]
  IC50: 104 nM
Cytochrome P450 3A4 [24]
  TDI: Not Active

## Cn1cc(-c2cnc(OCC(F)F)c(Cl)c2)c2ccc(C(=O)NS(C)(=O)=O)cc21
[1]
  IC50: > 30000 nM
[2]
  IC50: 850 nM

## CCc1ccc(-c2cn(C)c3cc(C(=O)NS(C)(=O)=O)ccc23)cc1
[1]
  IC50: > 30000 nM

## Cn1cc(-c2cnc(OCC3CC3)c(Cl)c2)c2ccc(C(=O)NS(C)(=O)=O)cc21
[2]
  IC50: 123 nM

## CN(C)S(=O)(=O)NC(=O)c1ccc2c(-c3ccc(C(F)(F)F)cc3)cn(C)c2c1
[1]
  IC50: 19000 nM
[2]
  IC50: 1700 nM

## Cn1cc(-c2ccc(C(F)(F)F)cc2)c2cnc(C(=O)NS(C)(=O)=O)cc21
[2]
  IC50: > 30000 nM

## CC(C)COc1ncc(-c2n[nH]c3cc(C(=O)NS(C)(=O)=O)ccc23)cc1Cl
[2]
  IC50: 280 nM

## Cn1cc(-c2cnc(OCC(F)(F)F)c(Cl)c2)c2ccc(C(=O)NS(C)(=O)=O)cc21
[1]
  IC50: 12000 nM
[2]
  IC50: 63 nM
